Data on four molecules can be found in US20240343699A1, “DERIVATIVES OF SUBSTITUTED MORPHOLINES AND USES THEREOF” (Supernus Pharmaceuticals, Inc., priority 2023, published 2024).

Structures are written as SMILES. Where “and” joins values, the source holds several entries; their conditions need not be identical. Equal values may be shown once. Read-outs that look alike come from different tables or passages of the source.

Broadly, the Kb is the equilibrium dissociation constant of an antagonist, usually derived from a functional assay. For orientation: IC50 means the concentration that inhibits the measured activity by half. The term Tmax denotes the time from dosing to the highest level. The term Cmax denotes the peak of the concentration-time curve.

Data set [1] is described as follows: Cellular and nuclear receptor functional assays. The format is cell-based. The note with it: human recombinant (CHO cells); for Kb: apparent dissociation constant, modified Cheng Prusoff equation, read-out: kB, 5-HT2B(h) (antagonist effect); for IC50: serotonin (30 nM), IP1, HTRF, read-out: IC50, 5-HT2B(h) (antagonist effect). The protocol:
(§1) A study was conducted to test 5 compounds in cellular and nuclear receptor functional and enzyme and uptake assays.
The results are expressed as a percent of control agonist response or inverse agonist response and as a percent inhibition of control agonist response
The EC50 values (concentration producing a half-maximal response) and IC50 values (concentration causing a half-maximal inhibition of the control agonist response) were determined by non-linear regression analysis of the concentration-response curves generated with mean replicate values using Hill equation curve fitting […]
where Y=response, A=left asymptote of the curve, D=right asymptote of the curve, C=compound concentration, and C50=EC50 or IC50, and nH=slope factor. This analysis was performed using software developed at Cerep (Hill software) and validated by comparison with data generated by the commercial software SigmaPlot® 4.0 for Windows® (© 1997 by SPSS Inc.).
For the antagonists, the apparent dissociation constants (KB) were calculated using the modified Cheng Prusoff equation where A=concentration of reference agonist in the assay, and EC50A=EC50 value of the reference agonist.
In Vitro Pharmacology. Results showing an inhibition (or stimulation for assays run in basal conditions) higher than 50% were considered to represent significant effects of the test compounds. Results showing an inhibition (or stimulation) between 25% and 50% are indicative of weak to moderate effects. Results showing an inhibition (or stimulation) lower than 25% were not considered significant and mostly attributable to variability of the signal around the control level.
On the technique in general: TR-FRET usually uses a lanthanide donor and a delayed reading to cut background.

For another data set, the system named is locomotor activity. Put plainly: SmartCage locomotor activity. The note with it: 24 hr.
Another data set in a line: Enzyme and uptake assays. It is filed as biochemical. The following applies: human recombinant; [3H]NE incorporation into cells; read-out: IC50, Norepinephrine transporter uptake (h). The protocol: as §1
The results are expressed as a percent of control specific activity
and as a percent inhibition of control specific activity
The IC50 values (concentration causing a half-maximal inhibition of control specific activity), EC50 values (concentration producing a half-maximal increase in control basal activity), and Hill coefficients (nH) were determined by non-linear regression analysis of the inhibition/concentration-response curves generated with mean replicate values using Hill equation curve fitting
where Y=specific activity, A=left asymptote of the curve, D=right asymptote of the curve, C=compound concentration, C50=IC50 or EC50, and nH=slope factor. This analysis was performed using software developed at Cerep (Hill software) and validated by comparison with data generated by the commercial software SigmaPlot® 4.0 for Windows® (© 1997 by SPSS Inc.).
In Vitro Pharmacology. Results showing an inhibition (or stimulation for assays run in basal conditions) higher than 50% were considered to represent significant effects of the test compounds. Results showing an inhibition (or stimulation) between 25% and 50% are indicative of weak to moderate effects. Results showing an inhibition (or stimulation) lower than 25% were not considered significant and mostly attributable to variability of the signal around the control level. […]

Data set [2] is described as follows: Preclinical PK after intraperitoneal dosing of COMPOUND D, COMPOUND B and viloxazine. The format is in vivo, mouse. The note with it: COMPOUND B IP 10.948 mg/kg; for concentration at 0.25 h / concentration at 0.5 h: read-out: Plasma concentration of COMPOUND B; for MRT last: read-out: MRT0-last, plasma COMPOUND B; for Tmax: read-out: Tmax, plasma COMPOUND B.
The nature of a further data set: Binding assays. The note with it: 1.0E−05 M. The protocol:
A study was conducted to test COMPOUND D and COMPOUND E in Binding and enzyme and uptake assays.
COMPOUND D and COMPOUND E were tested at 1.0E-05 M.
The results are expressed as a percent of control specific binding and as a percent inhibition of control specific binding
The IC50 values (concentration causing a half-maximal inhibition of control specific binding) and Hill coefficients (nH) were determined by non-linear regression analysis of the competition curves generated with mean replicate values using Hill equation curve fitting […]
where Y=specific binding, A=left asymptote of the curve, D=right asymptote of the curve, C=compound concentration, C50=IC50, and nH=slope factor. This analysis was performed using software developed at Cerep (Hill software) and validated by comparison with data generated by the commercial software SigmaPlot® 4.0 for Windows® (© 1997 by SPSS Inc.).
The inhibition constants (Ki) were calculated using the Cheng Prusoff equation where L=concentration of radioligand in the assay, and KD=affinity of the radioligand for the receptor. A scatchard plot is used to determine the KD.
In Vitro Pharmacology. Results showing an inhibition (or stimulation for assays run in basal conditions) higher than […] were considered to represent significant effects of the test compounds. Results showing an inhibition (or stimulation) between 25% and 50% are indicative of weak to moderate effects. Results showing an inhibition (or stimulation) lower than […] were not considered significant and mostly attributable to variability of the signal around the control level.

A short description of data set [3]: Plasma stability in rat plasma. It is filed as in vitro ADME, Sprague Dawley rat. The note with it: final concentration 2 μM. How it is done:
A study was conducted to examine the plasma stability. Test Compounds: COMPOUND D, COMPOUND E, and Viloxazine. Positive controls: Enalapril and Propantheline.
A study was conducted to examine the bioanalytical data for compounds in Rat plasma. Frozen Sprague Dawley rat (male pooled) and human (mixed gender) plasma was utilized for the study. Test compounds were dissolved in dimethyl sulfoxide (DMSO) to make a 10 mM stock solution. A working solution was made with MeOH/water. COMPOUND E ([…]) was incubated with plasma in duplicates at 37° C. in a water bath. Sampling timepoints included 0, 5, 15, 30, and 60 min Enalapril and propantheline were used as positive control for rat and human plasma at 2 μM

Data set [4] is classed as in vitro ADME, mouse. The following applies: mice Blood, wet ice bath, 5% Paraoxon ethyl as stabilizer; for % stability: 0.5 hr.
[5] abbreviates: mouse, plasma, ip, 10.948 mg/kg, individual mice.
[6] abbreviates: mouse, plasma, ip, 10.948 mg/kg, mean.

Method for locomotor activity: Animals. […] Upon arrival at the facility, animals were group-housed (5/cage) with access to food and water ad libitum. Animals were maintained on a 12/12-hour light/dark cycle in a temperature—(22±2° C.) and humidity-(approx.35-50%) controlled room. Animals were numbered consecutively by tail ID marker in each home cage.
Locomotor Activity Monitoring. […] After the first day, animals were administered one of four doses (PO) of test article and monitored for the next 24 hours. The animal's activity during the monitored hours was quantified using the parameters of distance travelled, time active, and rearing activity.
SmartCage. After a washout period of at least 24 hours following a TST evaluation during which the animals were group-housed (5/cage), individual mice were placed into a freshly prepared home cage and their activity recorded simultaneously using the SmartCage™ system and a video camera placed above the SmartCage™ system.
Active wakefulness was defined as actively moving, rearing, and exploratory behaviors. […] Likewise, distance traveled in centimeters was obtained from the lower horizontal IR and calculated taking into account the animal's path. […] The calculated distance traveled (at any given time period, called ‘block’, or ‘total measuring period’) and speed were the two main parameters for locomotor activity. […]

For `CCOc1ccccc1OC[C@@H]1CN(C(=O)OC(C)OC(=O)[C@@H](N)C(C)C)CCO1` (some centres unmarked) [COMPOUND A], in data set [1], the Kb was determined as 1 µM and the IC50 came out at 6.9 µM. The “home cage activity (activity, rearing, distance, velocity)” value in the data set with locomotor activity (COMPOUND A 10, 30 and 90 mg/kg PO) is given as “no significant effect on daytime or nighttime activity measurements”. Besides, the IC50 in the data set “Enzyme and uptake assays” is 0.39 µM.
Consider `CCOc1ccccc1OC[C@@H]1CN(C(=O)OC(OC(=O)[C@@H](N)C(C)C)C(C)C)CCO1` (some centres unmarked) [COMPOUND B], for which the “Plasma concentration of COMPOUND B” value in data set [2] (0.250 h, individual mice, 10.948 mg/kg) was “BQL and 17.7 ng/mL”; in data set [2] (0.500 h, individual mice, 10.948 mg/kg) it was 4.88 ng/mL and 8.44 ng/mL; in data set [2] (1.00 h, individual mice), “BQL”; in data set [2] (2.00 h, individual mice), “BQL”; in data set [2] (4.00 h, individual mice), “BQL”; in data set [2] (8.00 h, individual mice), “BQL”. Moreover, the “Plasma concentration of COMPOUND B” value in data set [2] (24.0 h, individual mice) is “BQL”. Besides, the “Plasma concentration of Viloxazine” value in data set [2] (4.00 h, individual mice, 10.948 mg/kg) is “BQL”; in data set [2] (8.00 h, individual mice, 10.948 mg/kg) it was “BQL”; in data set [2] (24.0 h, individual mice), “BQL”. In addition, the “Tlast, plasma COMPOUND B” value in data set [2] (individual mice) and in data set [2] (mean) was 0.500 h each time. For the same molecule, in data set [2] (individual mice, 10.948 mg/kg), the “AUC0-last, plasma COMPOUND B” value was 6.48 ng·h/mL and 1.22 ng·h/mL and 5.34 ng·h/mL. Moreover, in data set [2] (individual mice, 10.948 mg/kg), the “Cmax, plasma COMPOUND B” value was 25.4 ng/mL and 4.88 ng/mL and 17.7 ng/mL. For the same molecule, the “MRT0-last, plasma COMPOUND B” value in data set [2] (individual mice, 10.948 mg/kg) is 30 min and 18.8 min. In data set [2] (individual mice, 10.948 mg/kg), the “Tmax, plasma COMPOUND B” value was 30 min and 15 min. Also, the concentration at 0.25 h in data set [2] (mouse, plasma, ip, 10.948 mg/kg, 0.250 h, individual mice) amounted to 25.4 ng/mL; in data set [2] (mouse, plasma, ip, 10.948 mg/kg, 0.250 h, mean), 21.6 ng/mL. The concentration at 0.5 h came out at 5.75 ng/mL in data set [2] (mouse, plasma, ip, 10.948 mg/kg, 0.500 h, individual mice) and 6.36 ng/mL in data set [2] (mouse, plasma, ip, 10.948 mg/kg, 0.500 h, mean). The MRT last in data set [2] (setting [5]) was found to be 17.9 min; in data set [2] (setting [6]) it was 22.3 min. Besides, the Tmax in data set [2] (setting [5]) was 15 min; in data set [2] (setting [6]), 20 min. In addition, the AUC(0-t) in data set [2] (mouse, plasma, ip, 10.948 mg/kg, mean, read-out: AUC0-last, plasma COMPOUND B) turned out to be 4.35 ng·h/mL. In addition, the Cmax in data set [2] (mouse, plasma, ip, 10.948 mg/kg, mean, read-out: Cmax, plasma COMPOUND B) was found to be 16 ng/mL. Moreover, the Kb in data set [1] was 2.1 µM. Moreover, the IC50 in data set [1] worked out at 14 µM; in the data set “Enzyme and uptake assays”, 1.9 µM.
Take `CCOc1ccccc1OC[C@@H]1CN(C(=O)OC(OC(=O)[C@H](N)C(C)C)C(C)C)CCO1` (some centres unmarked) [COMPOUND C]: in data set [1], the Kb was found to be 2 µM and the IC50 came to 13 µM. Moreover, the “home cage activity (activity, rearing, distance, velocity)” value in the data set with locomotor activity (COMPOUND C 10, 30, 60 and 90 mg/kg PO) was “no significant effect on daytime or nighttime activity measurements”. Further, in the data set “Enzyme and uptake assays”, the half-maximal inhibitory concentration (IC50) was found to be 1.8 µM.
For `CCOc1ccccc1OCC1CN(C(=O)OC(OC(=O)[C@@H](N)C(C)C)C(C)C)CCO1` (some centres unmarked) [COMPOUND E], in “Binding assays”, the “inhibition, 5-HT2B(h) (agonist radioligand)” value was determined as 80.2%; the “inhibition, 5-HT2C(h) (agonist radioligand)” value was found to be 54.1%; the “inhibition, Ca^2+ channel (L, diltiazem site) (benzothiazepines) (antagonist radioligand)” value was 78.9%; the “inhibition, Ca^2+ channel (L, verapamil site) (phenylalkylamine) (antagonist radioligand)” value stood at 50.7%. Besides, in “Binding assays”, the “inhibition, MT3 (ML2) (agonist radioligand)” value is 51.1% and the “inhibition, Na^+ channel (site 2) (antagonist radioligand)” value is given as 84.5%. Further, the “% Remaining at 60 min (Mean)” value in data set [3] was determined as 0.0%. In data set [1], the antagonist equilibrium constant (Kb) came to 0.63 µM and the IC50 came to 4.2 µM. Moreover, the IC50 in the data set “Enzyme and uptake assays” worked out at 2.6 µM. The Mean peak area in data set [4] (HQC, 0 hr sample) was found to be 2.903. Moreover, the “% stability” value in data set [4] (HQC) was 103%. Further, the Mean peak area in data set [4] (HQC, 0.5 hr sample) is recorded as 3.00. Moreover, the Mean peak area in data set [4] (LQC, 0 hr sample) is 0.00933. The “% stability” value in data set [4] (LQC) turned out to be 86.3%. Besides, the Mean peak area in data set [4] (LQC, 0.5 hr sample) turned out to be 0.00806.
